Measurements reported in PMC4076079, “Selective inhibitors of a PAF biosynthetic enzyme lysophosphatidylcholine acyltransferase 2” (Journal of Lipid Research, 2014).
Read-outs that look alike come from different tables or passages of the source.

How the values were obtained:
mLPCAT2 = target: T1, mLPCAT2 (Mus musculus, UniProt Q8BYI6); experiment: lyso-PAFAT (acetyltransferase) activity assay, PAF product; assay type: biochemical; conditions: 20 μM compound; microsomal fractions of nonstimulated CHO-S-PAFR cells; n = 3, mean ± SEM
T1 construct: expressed in transfected cells; host or cells: CHO-S-PAFR cells, microsomal fraction, with or without mcPAF stimulation
T1 sequence (Q8BYI6 1-544): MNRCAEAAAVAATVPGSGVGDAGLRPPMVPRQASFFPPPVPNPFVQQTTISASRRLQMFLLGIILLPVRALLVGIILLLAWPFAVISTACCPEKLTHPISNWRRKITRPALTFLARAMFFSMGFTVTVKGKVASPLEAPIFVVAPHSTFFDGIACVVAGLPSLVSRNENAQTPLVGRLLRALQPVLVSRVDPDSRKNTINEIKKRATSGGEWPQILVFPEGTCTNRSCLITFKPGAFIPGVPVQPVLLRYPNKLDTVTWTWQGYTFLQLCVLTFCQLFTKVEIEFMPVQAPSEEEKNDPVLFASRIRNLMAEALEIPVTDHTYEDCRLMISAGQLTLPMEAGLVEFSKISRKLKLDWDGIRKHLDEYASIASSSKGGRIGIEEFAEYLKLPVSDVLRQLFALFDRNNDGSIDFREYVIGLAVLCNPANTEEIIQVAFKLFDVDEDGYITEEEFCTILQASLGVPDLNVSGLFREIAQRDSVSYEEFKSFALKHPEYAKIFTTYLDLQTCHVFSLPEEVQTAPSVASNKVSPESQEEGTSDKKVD
Protocol: (§1) Microsomal protein fractions (0.5 μg) supplemented with the indicated compound concentrations were added to the reaction mixture containing 100 mM Tris-HCl (pH 7.4), 1 μM CaCl2, 0.015% Tween-20, and two substrates. For acetyltransferase activity, the substrates were 1 mM acetyl-CoA and 5 μM d4-lyso-PAF; for the acyltransferase activity of LPCAT1 or LPCAT2, the substrates were, respectively, palmitoyl-CoA and d31-16:0 LPC or arachidonoyl-CoA and d4-lyso-PAF (all 5 μM). Each lysophospholipid contained fatty acid at the sn-1 position. After incubation at 37°C for 5 min, the reactions were stopped by adding 300 μl methanol containing 17:0 LPC or 14:0/14:0 PC as an internal standard. Deuterium-labeled products were analyzed by LC-MS/MS (Waters, Milford, MA and Thermo Scientific, Waltham, MA). […]
(§2) arachidonoyl-CoA, 5 µM; palmitoyl-CoA, 5 µM; d4-lyso-PAF, 5 µM; and d31-LPC, 5 µM. […]
(§3) deuterium-labeled products were measured by LC-MS/MS. […]
(§4) Step 7 screening: species-specific differences
(§5) To evaluate the effects on the activity of mouse or human LPCAT1 and LPCAT2, each microsomal fraction was obtained using CHO-S-PAFR cells with or without mcPAF (200 nM) stimulation for 5 min. Acetyltransferase and acyltransferase assays were performed with 20 µM of each compound. Percentage inhibition was calculated in each

mLPCAT1 = target: T2, mLPCAT1 (Mus musculus, UniProt Q3TFD2); experiment: as above; assay type: biochemical; conditions: 20 μM compound; microsomal fractions of nonstimulated CHO-S-PAFR cells; n = 3, mean ± SEM
T2 construct: expressed in transfected cells; host or cells: CHO-S-PAFR cells, microsomal fraction
T2 sequence (Q3TFD2 1-534): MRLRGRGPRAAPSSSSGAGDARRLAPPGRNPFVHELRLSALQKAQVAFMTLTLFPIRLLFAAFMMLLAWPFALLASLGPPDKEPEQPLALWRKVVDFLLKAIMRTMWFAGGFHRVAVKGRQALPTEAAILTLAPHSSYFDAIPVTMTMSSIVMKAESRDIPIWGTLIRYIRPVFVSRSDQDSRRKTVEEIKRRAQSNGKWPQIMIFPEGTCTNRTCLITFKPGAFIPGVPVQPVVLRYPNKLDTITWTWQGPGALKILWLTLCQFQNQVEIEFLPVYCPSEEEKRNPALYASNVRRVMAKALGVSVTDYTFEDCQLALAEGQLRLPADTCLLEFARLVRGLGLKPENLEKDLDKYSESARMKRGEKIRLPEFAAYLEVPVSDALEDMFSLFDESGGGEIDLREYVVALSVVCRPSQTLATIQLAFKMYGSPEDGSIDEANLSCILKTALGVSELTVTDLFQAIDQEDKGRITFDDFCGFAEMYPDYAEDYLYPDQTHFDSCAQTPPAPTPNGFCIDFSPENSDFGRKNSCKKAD
Protocol: as §1, §2, §3, §4, §5

RAW-mLPCAT2 cells = experiment: cell-based assay: A23187-induced PAF production, PAF and lyso-PAF by LC-MS/MS; set-up: species or system mouse; conditions: for IC50: Mus musculus
Protocol: RAW-mLPCAT2 cells and peritoneal macrophages were seeded in 24-well plates (4 × 10^6 cells/well) for 24 or 2 h, respectively, before treatment. RAW-mLPCAT2 cells were stimulated with 5 μM A23187 for 5 min after a 1 h treatment with the compounds. Peritoneal macrophages were preincubated with 100 ng/ml LPS for 18 h, treated with the compounds for 1 h, and stimulated with 5 μM A23187 for 5 min. To analyze cellular PAF levels, lipids were extracted with 500 μl methanol containing d4-PAF and d4-lyso-PAF as internal standards. Each sample was submitted to solid phase extraction using an Oasis HLB 96-well cartridge cluster (Waters), and PAF and lyso-PAF were measured by LC-MS/MS as previously described ([13]).
Chromatography was performed using an Acquity™ Ultra-performance LC system (Waters) coupled to a TSQ Vantage triple stage quadrupole mass spectrometer (Thermo Scientific) with a HESI-II electrospray ionization source ([13]). Phospholipids were separated on BEH C8 columns (1.7 μm, 2.1 × 30 mm or 1 × 100 mm; Waters) for the analysis of assay products or the composition of cellular PAF and lyso-PAF, respectively. The mobile phase contained 20 mM aqueous ammonium bicarbonate and acetonitrile. The extracts from peritoneal macrophages were separated on a Kinetex C8 column (1.7 μm, 2.1 × 100 mm; Phenomenex, Torrance, CA) by a gradient elution with 0.05% formic acid-water and acetonitrile, using the Nexera X2 system and LCMS-8080 mass spectrometer (Shimadzu, Kyoto, Japan) ([13]). Lyso-PAF, d4-PAF, and d31-DPPC were identified by the choline fragment (m/z 184) as a product ion of selected reaction monitoring in the positive ion mode. Nonlabeled PAF and d4-16:0/20:4 alkyl-PC were determined by fatty acid anions of sn-2 composition (m/z 59 and 303, respectively) in the negative ion mode. Mass spectra were processed using the Xcalibur 2.0 (Thermo Scientific) or LabSolutions 5.50 (Shimadzu) software. Signal intensities were determined relative to the internal standard or as the percentage of the positive control. […]
Step 9 screening: cell-based assay
RAW-mLPCAT2 cells were treated with compounds for 1 h and analyzed after 5 min stimulation with A23187. The assays were performed with 0, 0.2, 0.6, 20, and 50 or 60 µM of compound. PAF concentration was measured by LC-MS/MS.
The data were normalized to each positive control (100% activation). Percentage inhibition or IC50 were determined in each screening step. To assess screening quality, the percentage coefficient of variance and the Z’ factor was calculated for each plate or each assay as described previously (2).

[1] = 1 h pretreatment, 5 μM A23187 for 5 min
[2] = screening step 9 (n = 2), 1 h compound, 5 min A23187, read-out: IC50, A23187-induced PAF production

Structure (SMILES)	percentage inhibition, product PAF, mLPCAT2 (mLPCAT2)	percentage inhibition, product PAF, mLPCAT1 (mLPCAT1)	A23187-induced PAF production (RAW-mLPCAT2 cells; [1])	lyso-PAF level (RAW-mLPCAT2 cells; [1])	IC50 (RAW-mLPCAT2 cells; 1 h pretreatment, 5 μM A23187 for 5 min, Fig. 4, three independent experiments, read-out: IC50, inhibition of PAF production)	IC50 (RAW-mLPCAT2 cells; [2])
CCCOC(=O)c1ccc(N2C(=O)C(Cl)=C(Cl)C2=O)cc1 [TSI-10]	99.1 ± 0.2 percentage	89.6 ± 1.1 percentage	suppressed	increased		
CC(C)OC(=O)c1ccc(N2C(=O)C(Cl)=C(Nc3ccccc3O)C2=O)cc1 [TSI-07]	84.1 ± 6.4 percentage	33.6 ± 6.1 percentage	suppressed	decreased		
CC(C)OC(=O)c1ccc(N2C(=O)C(Cl)=C(Cl)C2=O)cc1 [TSI-01, propan-2-yl 4-(3,4-dichloro-2,5-dioxopyrrol-1-yl)benzoate]	99.2 ± 0.2 percentage	89.2 ± 1.8 percentage	suppressed	increased	38.8 µM	28.2 µM
O=C1C(Cl)=C(N2CCOCC2)C(=O)N1c1ccc(Oc2ccccc2)cc1 [TSI-02, 3-chloro-4-morpholin-4-yl-1-(4-phenoxyphenyl)pyrrole-2,5-dione]						23.6 µM
CCCCOC(=O)c1ccc(N2C(=O)C(Cl)=C(Cl)C2=O)cc1 [TSI-11, butyl 4-(3,4-dichloro-2,5-dioxopyrrol-1-yl)benzoate]	98.9 ± 0.3 percentage	89.3 ± 1.1 percentage	suppressed	not changed		
